Measurements taken from patent EP0246774A1, “Chemical compounds” (SMITH KLINE & FRENCH LABORATORIES LIMITED, priority 1986, dated 1987).

The compounds below were run on histamine stimulated gastric acid secretion (assay: Rat lumen perfused stomach, histamine stimulated gastric acid secretion (modified Ghosh and Schild procedure)). Conditions: intravenous administration.
Type: in vivo
Text: A. Rat : Lumen perfused stomach (histamine stimulated gastric acid secretion).
Using a modification of the procedure described by Ghosh and Schild (Br. J. Pharmacology, 13, 54, 1958), ED50 values after intravenous administration were obtained as follows: […]

Structure (SMILES) | ED50 [µmol/kg]
COc1ccc2[nH]c([S+]([O-])Cc3nccc(N4CCOCC4)c3F)nc2c1 (stereo not shown) [Example 2, 5-methoxy-2-(4-morpholino-3-fluoro-2-pyridylmethylsulphinyl)-(lH)-benzimidazole] | 0.7
COc1cc2[nH]c([S+]([O-])Cc3nccc(N4CCOCC4)c3F)nc2cc1C (stereo not shown) [Example 14, 5-methyl-6-methoxy-2-(4-morpholino-3-fluoro-2-pyridylmethylsulphinyl)-(lH)-benzimidazole] | 1.51

Same assay, conditions: intravenous administration, dose not given

Structure (SMILES) | % inhibition at µ/kg [%]
COc1ccc2[nH]c([S+]([O-])Cc3cc(N4CCOCC4)c(F)cn3)nc2c1 (stereo not shown) [Example 4, 5-methoxy-2-(4-morpholino-5-fluoro-2-pyridvlmethylsulphinyl)-(lH)-benzimidazole] | 51
COc1ccc2[nH]c([S+]([O-])Cc3nccc(N(C)C)c3F)nc2c1 (stereo not shown) [Example 6, 5-methoxy-2-(4-dimethylamino-3-fluoro-2-pyridylmethylsulphinyl)-(1H)-benzimidazole] | 26
COc1ccc2[nH]c([S+]([O-])Cc3cc(N(C)C)c(F)cn3)nc2c1 (stereo not shown) [Example 8, 5-methoxy-2-(4-dimethylamino-5-fluoro-2-pyridylmethylsulphinyl)-(1H)-benzimidazole] | 37
COc1cc2nc([S+]([O-])Cc3nccc(N4CCOCC4)c3F)[nH]c2cc1OC (stereo not shown) [Example 12, 5,6-dimethoxy-2-(4-morpholino-3-fluoro-2-pyridylmethylsulphinvl)-(lH)-benzimidazole] | 33
COc1cc2nc([S+]([O-])Cc3nccc(N(C)C)c3F)[nH]c2cc1OC (stereo not shown) [Example 16, 5,6-dimethoxy-2-(4-dimethylamino-3-fluoro-2-pyridylmethylsulphinyl)-(lH)-benzimidazole] | 46
